Assay results published in patent US10906880B2, “Kind of isothiazole oxime ether-containing strobilurin derivatives and its preparation methods and application” (priority 2016, dated 2021).
Several values for one entry are separate records, joined by “and”; a condition that tells them apart may be missing. Identical values can stand only once. Like-named read-outs stand apart in the source and are kept apart here.

What was measured:
Alternaria solani = assay: Fungicide activity, mycelial growth inhibition on PDA plate; type: cell-based; details: for inhibition at 50 µg/mL: Alternaria solani, read-out: Fungicidal activity inhibition, AS
Cercospora arachidicola = assay: as above; type: cell-based; details: for inhibition at 50 µg/mL: Mycosphaerella arachidis, read-out: Fungicidal activity inhibition, CA
Gibberella zeae = assay: microbe, parasite or virus in culture; type: cell-based; details: for Fungicidal activity inhibition, GZ: 50 μg/mL, G. zeae
Physalospora piricola = assay: Fungicide activity, mycelial growth inhibition on PDA plate; type: cell-based; details: for inhibition at 50 µg/mL: 50 μg/mL, P. piricola, read-out: Fungicidal activity inhibition, PP
Botrytis cinerea = assay: as above; type: cell-based; details: for inhibition at 50 µg/mL: Botrytis cinerea, read-out: Fungicidal activity inhibition, BC
Sclerotinia sclerotiorum = assay: as above; type: cell-based; details: for inhibition at 50 µg/mL: Sclerotinia sclerotiorum, read-out: Fungicidal activity inhibition, SS
Rhizoctonia cerealis = assay: as above; type: cell-based; details: for inhibition at 50 µg/mL: Ceratobasidium cereale, read-out: Fungicidal activity inhibition, RC
Pellicularia sasakii = assay: as above; type: cell-based; details: for inhibition at 50 µg/mL: 50 μg/mL, P. sasakii, read-out: Fungicidal activity inhibition, PS
[1] = system: Phytophthora infestans (Mont) de Bary; assay: microbe, parasite or virus in culture; type: cell-based; details: for Fungicidal activity inhibition, PI: 50 μg/mL, P. infestans (Mont.) de Bary; for inhibition at 50 µg/mL: Phytophthora infestans, read-out: Fungicidal activity inhibition, PI, 50 μg/mL, P. infestans (Mont.) de Bary
TMV [2] = assay: Anti-TMV activity on tobacco, protection mode; type: in vivo, tobacco mosaic virus; details: 100 μg/mL; for inhibition at 100 µg/mL: Tobacco mosaic virus, read-out: Anti-TMV activity inhibition, Protection effect
TMV [3] = assay: Anti-TMV activity on tobacco, induction mode (systemic acquired resistance); type: in vivo, tobacco mosaic virus; details: 100 μg/mL; for inhibition at 100 µg/mL: Tobacco mosaic virus, read-out: Anti-TMV activity inhibition, Induction effect
TMV [4] = assay: Anti-TMV activity on tobacco, curative mode; type: in vivo, tobacco mosaic virus; details: 100 μg/mL, tobacco; for inhibition at 100 µg/mL: Tobacco mosaic virus, read-out: Anti-TMV activity inhibition, Curative effect
TMV [5] = assay: Anti-TMV activity on tobacco, inactivation mode; type: in vivo, tobacco mosaic virus; details: 100 μg/mL; for inhibition at 100 µg/mL: Tobacco mosaic virus, read-out: Anti-TMV activity inhibition, Inactivation effect

## CO/C=C(/C(=O)OC)c1ccccc1Oc1cc(Oc2ccccc2C#N)ncn1 [Azoxystrobin, reference compound]
Alternaria solani
  Fungicidal activity inhibition, AS: 75.00%
Cercospora arachidicola
  Fungicidal activity inhibition, CA: 55.56%
Gibberella zeae
  Fungicidal activity inhibition, GZ: 71.43%
Physalospora piricola
  Fungicidal activity inhibition, PP: 100%
Botrytis cinerea
  Fungicidal activity inhibition, BC: 91.18%
Sclerotinia sclerotiorum
  Fungicidal activity inhibition, SS: 88.10%
Rhizoctonia cerealis
  Fungicidal activity inhibition, RC: 84.06%
Pellicularia sasakii
  Fungicidal activity inhibition, PS: 80.77%
[1]
  Fungicidal activity inhibition, PI: 46.88%

## CSC(=O)c1cccc2nnsc12 [BTH, reference compound]
TMV [2]
  Anti-TMV activity inhibition, Protection effect: 78.10 ± 0.54%
TMV [3]
  Anti-TMV activity inhibition, Induction effect: 78.00 ± 1.34%

## CNC(=O)/C(=N/OC)c1cc(C)c(C)cc1CO/N=C(\C)c1cc(Cl)ns1 [CL04-00, reference compound]
Gibberella zeae
  Fungicidal activity inhibition, GZ: 29.63% and 50.00%
TMV [4]
  Anti-TMV activity inhibition, Curative effect: 26.39 ± 1.22%
  inhibition at 100 µg/mL: 27.3 ± 1.24%
TMV [5]
  Anti-TMV activity inhibition, Inactivation effect: 19.68 ± 1.10%
  inhibition at 100 µg/mL: 20.7 ± 2.1%
TMV [2]
  Anti-TMV activity inhibition, Protection effect: 25.30 ± 1.47%
  inhibition at 100 µg/mL: 26.3 ± 2.47%
TMV [3]
  Anti-TMV activity inhibition, Induction effect: 19.34 ± 1.14%
  inhibition at 100 µg/mL: 20.3 ± 2.16%

## CO/N=C(/C(=O)OC)c1ccccc1CO/N=C(\C)c1snc(Cl)c1Cl [CL04-15A]
Alternaria solani; 50 μg/mL, A. solani
  inhibition at 50 µg/mL: 47.1%
Alternaria solani
  inhibition at 50 µg/mL: > 30%
Cercospora arachidicola; 50 μg/mL, C. arachidicola
  inhibition at 50 µg/mL: 50%
Cercospora arachidicola
  inhibition at 50 µg/mL: > 30%
Gibberella zeae; Fusarium graminearum, read-out: Fungicidal activity inhibition, GZ, 50 μg/mL, G. zeae
  inhibition at 50 µg/mL: > 30%
Physalospora piricola
  inhibition at 50 µg/mL: 53%
Botrytis cinerea; 50 μg/mL, B. cinerea
  inhibition at 50 µg/mL: 100%
Sclerotinia sclerotiorum; 50 μg/mL, S. sclerotiorum
  inhibition at 50 µg/mL: 100%
Rhizoctonia cerealis; 50 μg/mL, R. cerealis
  inhibition at 50 µg/mL: 85.5%
Rhizoctonia cerealis
  inhibition at 50 µg/mL: > 50%
Pellicularia sasakii
  inhibition at 50 µg/mL: 76.9%
TMV [4]
  inhibition at 100 µg/mL: 1.52 ± 0.62%
TMV [2]
  inhibition at 100 µg/mL: > 40%
other
  melting point: 73 to 75 °C

## CO/N=C(/C(=O)OC)c1ccccc1CO/N=C(C)/C=C/c1snc(Cl)c1Cl [CL04-17]
Alternaria solani; 50 μg/mL, A. solani
  inhibition at 50 µg/mL: 35.7%
Alternaria solani
  inhibition at 50 µg/mL: > 30%
Cercospora arachidicola; 50 μg/mL, C. arachidicola
  inhibition at 50 µg/mL: 50%
Cercospora arachidicola
  inhibition at 50 µg/mL: > 30%
Physalospora piricola
  inhibition at 50 µg/mL: 47.8%
Botrytis cinerea; 50 μg/mL, B. cinerea
  inhibition at 50 µg/mL: 100%
Sclerotinia sclerotiorum; 50 μg/mL, S. sclerotiorum
  inhibition at 50 µg/mL: 86.7%
Sclerotinia sclerotiorum
  inhibition at 50 µg/mL: > 40%
Rhizoctonia cerealis; 50 μg/mL, R. cerealis
  inhibition at 50 µg/mL: 81.5%
Rhizoctonia cerealis
  inhibition at 50 µg/mL: > 50%
Pellicularia sasakii
  inhibition at 50 µg/mL: 58.8%
[1]
  inhibition at 50 µg/mL: > 40%
TMV [4]
  inhibition at 100 µg/mL: > 30%
TMV [5]
  inhibition at 100 µg/mL: > 30%
TMV [2]
  inhibition at 100 µg/mL: 29.3 ± 1.31%
TMV [3]
  inhibition at 100 µg/mL: > 30%
other
  melting point: 105 to 107 °C

## C#CCNC(=O)/C(=N/OC)c1ccccc1CO/N=C(\C)c1snc(Cl)c1Cl [CL04-22B]
Alternaria solani; 50 μg/mL, A. solani
  inhibition at 50 µg/mL: 28.6%
Cercospora arachidicola; 50 μg/mL, C. arachidicola
  inhibition at 50 µg/mL: 35.7%
Cercospora arachidicola
  inhibition at 50 µg/mL: > 30%
Gibberella zeae
  Fungicidal activity inhibition, GZ: 100%
Physalospora piricola
  inhibition at 50 µg/mL: 49.1%
Botrytis cinerea; 50 μg/mL, B. cinerea
  inhibition at 50 µg/mL: 51.9%
Botrytis cinerea
  inhibition at 50 µg/mL: > 45%
Sclerotinia sclerotiorum; 50 μg/mL, S. sclerotiorum
  inhibition at 50 µg/mL: 100%
Rhizoctonia cerealis; 50 μg/mL, R. cerealis
  inhibition at 50 µg/mL: 86.9%
Rhizoctonia cerealis
  inhibition at 50 µg/mL: > 50%
Pellicularia sasakii
  inhibition at 50 µg/mL: 73.3%
TMV [4]
  inhibition at 100 µg/mL: 1.52 ± 0.62%
TMV [5]
  inhibition at 100 µg/mL: > 30%
TMV [2]
  inhibition at 100 µg/mL: > 40%
other
  melting point: 120 to 122 °C

## CNC(=O)/C(=N/OC)c1ccccc1CO/N=C(\C)c1snc(Cl)c1Cl [CL04-22D]
Alternaria solani; 50 μg/mL, A. solani
  inhibition at 50 µg/mL: 47.5%
Alternaria solani
  inhibition at 50 µg/mL: > 30%
Cercospora arachidicola; 50 μg/mL, C. arachidicola
  inhibition at 50 µg/mL: 87.5%
Gibberella zeae
  Fungicidal activity inhibition, GZ: 100%
Physalospora piricola
  inhibition at 50 µg/mL: 80.8%
Botrytis cinerea; 50 μg/mL, B. cinerea
  inhibition at 50 µg/mL: 100%
Sclerotinia sclerotiorum; 50 μg/mL, S. sclerotiorum
  inhibition at 50 µg/mL: 100%
Rhizoctonia cerealis; 50 μg/mL, R. cerealis
  inhibition at 50 µg/mL: 100%
Pellicularia sasakii
  inhibition at 50 µg/mL: 89.2%
[1]
  Fungicidal activity inhibition, PI: 100%
TMV [4]
  inhibition at 100 µg/mL: 32.8 ± 3.36%
TMV [5]
  inhibition at 100 µg/mL: 4.44 ± 0.85%
TMV [2]
  inhibition at 100 µg/mL: > 40%
other
  melting point: 79 to 81 °C

## CO/N=C(/C(=O)NC(C)(C)CSC)c1ccccc1CO/N=C(\C)c1snc(Cl)c1Cl [CL04-22E]
Alternaria solani; 50 μg/mL, A. solani
  inhibition at 50 µg/mL: 27.3%
Cercospora arachidicola; 50 μg/mL, C. arachidicola
  inhibition at 50 µg/mL: 45.8%
Cercospora arachidicola
  inhibition at 50 µg/mL: > 30%
Physalospora piricola
  inhibition at 50 µg/mL: 42.9%
Botrytis cinerea; 50 μg/mL, B. cinerea
  inhibition at 50 µg/mL: 62.5%
Botrytis cinerea
  inhibition at 50 µg/mL: > 45%
Sclerotinia sclerotiorum; 50 μg/mL, S. sclerotiorum
  inhibition at 50 µg/mL: 29.4%
Rhizoctonia cerealis; 50 μg/mL, R. cerealis
  inhibition at 50 µg/mL: 76%
Rhizoctonia cerealis
  inhibition at 50 µg/mL: > 50%
Pellicularia sasakii
  inhibition at 50 µg/mL: 21.2%
[1]
  inhibition at 50 µg/mL: 28.6%
TMV [4]
  inhibition at 100 µg/mL: 20.2 ± 5.58%
TMV [5]
  inhibition at 100 µg/mL: > 30%
TMV [2]
  inhibition at 100 µg/mL: 22.7 ± 2.05%
TMV [3]
  inhibition at 100 µg/mL: 12.7 ± 6.05%
